The text below walks through data of patent US20260193293A1, “PEPTIDES CAPABLE OF INHIBITING PROTEIN-PROTEIN INTERACTIONS AT GABAB1A SUBUNIT AND USES THEREOF” (UNIVERSITY OF COPENHAGEN, priority 2022, published 2026).

In the assay the target is Sushi domains (SD1/2) protein. Nature of the assay: Fluorescence polarization (FP) competition assay with AJAP-1probe, calculated Ki. The format is binding. Put shortly: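 Competition against 25 nM TAMRA-labelled peptide probe binding SD1/2, in PBS pH 7.4 with 1% BSA at rt, read at 530/580 nm. IC50 from sigmoidal dose-response fits, at least triplicate; Ki calculated from IC50 using probe Kd from saturation binding.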

Where [1] appears, read: CPP tagged peptides overview, SD1/2 binding affinity, mean ± SEM, n ≥ 3, read-out: Ki.
Setting [2] is: Table 14, CPPs tagged peptides, read-out: Ki (nM) mean ± SEM.
[3] abbreviates: Table 1, affinity maturation, mean ± SEM, n ≥ 3, read-out: Ki.
Setting [4] is: Table 13, peptides for affinity maturation, read-out: Ki (nM) mean ± SEM.
Setting [5] is: Table 11, deep mutational scanning validation variants of AJAP-1WT, read-out: Ki (nM) mean ± SEM.
Setting [6] is: Table 16, ncAAs incorporated peptides, read-out: Ki (nM) mean ± SEM.

Like-named read-outs stand apart in the source and are kept apart here. Non-standard residues stand in square brackets, D forms with d. Residues, ends and D or L forms follow the SMILES beside them. Phe(4-tBu) = CC(C)(C)c1ccc(C[C@H](N)C(=O)O)cc1; Phe(4-NH2) = Nc1ccc(C[C@H](N)C(=O)O)cc1; Phe(4-F) = N[C@@H](Cc1ccc(F)cc1)C(=O)O; 2Nal = N[C@@H](Cc1ccc2ccccc2c1)C(=O)O

For `CC[C@H](C)[C@H](NC(=O)[C@H](Cc1c[nH]c2ccccc12)NC(=O)[C@H](CC(=O)O)NC(=O)[C@H](CC(=O)O)NC(=O)[C@H](CC(=O)O)NC(=O)[C@H](CCC(=O)O)NC(=O)[C@H](CCCCN)NC(=O)[C@H](C)NC(=O)[C@H](C)NC(=O)[C@H](C)NC(=O)[C@H](CCC(=O)O)NC(=O)[C@H](CCCNC(=N)N)NC(=O)[C@H](CCCNC(=N)N)NC(=O)[C@H](CCCNC(=N)N)NC(=O)[C@H](CCCNC(=N)N)NC(=O)[C@H](CCCNC(=N)N)NC(=O)[C@H](CCCNC(=N)N)NC(=O)[C@H](CCCNC(=N)N)NC(=O)[C@H](CCCNC(=N)N)NC(C)=O)C(=O)N[C@@H](CC(=O)O)C(=O)N[C@@H](Cc1c[nH]c2ccccc12)C(=O)N[C@@H](Cc1ccc(O)cc1)C(=O)N[C@@H](CC(=O)O)C(=O)N[C@@H](CO)C(=O)N[C@@H](CC(=O)O)C(=O)N[C@@H](CC(=O)O)C(=O)N[C@@H](CC(=O)O)C(N)=O` [Peptide R8-RL-16] (Ac-RRRRRRRREAAAKEDDDWIDWYDSDDD-NH2), the Ki is 314 ± 4 nM under setting [1] and 314 ± 4 nM under setting [2].
For `CC[C@H](C)[C@H](NC(=O)[C@H](Cc1c[nH]c2ccccc12)NC(=O)[C@H](CC(=O)O)NC(=O)[C@H](CC(=O)O)NC(=O)[C@H](CC(=O)O)NC(=O)[C@H](CCC(=O)O)NC(=O)[C@H](CCCCN)NC(=O)[C@H](C)NC(=O)[C@H](C)NC(=O)[C@H](C)NC(=O)[C@H](CCC(=O)O)NC(=O)[C@H](CCCNC(=N)N)NC(=O)[C@H](CCCNC(=N)N)NC(=O)[C@H](CCCNC(=N)N)NC(=O)[C@H](CCCNC(=N)N)NC(=O)[C@H](CCCNC(=N)N)NC(=O)[C@H](CCCNC(=N)N)NC(=O)[C@H](CCCNC(=N)N)NC(=O)[C@H](CCCNC(=N)N)NC(C)=O)C(=O)N[C@@H](CC(=O)O)C(=O)N[C@@H](Cc1c[nH]c2ccccc12)C(=O)NCC(=O)N1CCC[C@H]1C(=O)N[C@H](C(=O)N[C@@H](CO)C(=O)N[C@@H](CC(=O)O)C(=O)N[C@@H](CC(=O)O)C(=O)N[C@@H](CC(=O)O)C(N)=O)[C@@H](C)O` [Peptide R8-RL-17] (Ac-RRRRRRRREAAAKEDDDWIDWGPTSDDD-NH2), the Ki is, setting by setting: under setting [1], 105 ± 2 nM; under setting [2], 105 ± 2 nM.
For the compound `CC(=O)N[C@@H](CCC(=O)O)C(=O)N[C@@H](CC(=O)O)C(=O)N[C@@H](CC(=O)O)C(=O)N[C@@H](CO)C(=O)N[C@@H](CC(=O)O)C(=O)N[C@H](C(=O)N[C@@H](Cc1c[nH]c2ccccc12)C(=O)N[C@@H](Cc1c[nH]c2ccccc12)C(=O)NCC(=O)N1CCC[C@H]1C(=O)N[C@H](C(=O)NCC(=O)N[C@@H](CC(=O)O)C(=O)N[C@@H](CCC(=O)O)C(=O)N[C@@H](CC(=O)O)C(N)=O)[C@@H](C)O)C(C)C` [Peptide X, Ac-EDDSDVWWGPTGDED-NH2] (Ac-EDDSDVWWGPTGDED-NH2), the Ki under setting [3] is 62 ± 1 nM and the Ki under setting [4] is 62 ± 1 nM. Also, for the setting “relative to APPWT”, the “fold improved affinity compared to APPWT” value is around 10 fold.
`CC[C@H](C)[C@H](NC(=O)[C@H](Cc1ccccc1)NC(=O)[C@H](CCC(=O)O)NC(=O)[C@@H](NC(=O)[C@H](CCC(=O)O)NC(C)=O)[C@@H](C)O)C(=O)N[C@@H](C)C(=O)N[C@@H](Cc1c[nH]c2ccccc12)C(=O)NCC(=O)NCC(=O)N[C@@H](C)C(=O)N[C@@H](CC(=O)O)C(=O)N[C@H](C(=O)N[C@@H](CC(=O)O)C(N)=O)[C@@H](C)O` [Peptide Y] (Ac-ETEFIAWGGADTD-NH2): the Ki was 354 ± 9 nM under setting [3] and 345 ± 9 nM under setting [4].
`CC[C@H](C)[C@H](NC(=O)[C@H](Cc1ccccc1)NC(=O)[C@H](CCC(=O)O)NC(=O)[C@@H](NC(=O)[C@H](CCCNC(=N)N)NC(C)=O)[C@@H](C)O)C(=O)N[C@@H](C)C(=O)N[C@@H](Cc1c[nH]c2ccccc12)C(=O)NCC(=O)N1CCC[C@H]1C(=O)N[C@H](C(=O)NCC(=O)N[C@@H](CC(=O)O)C(=O)N[C@@H](CCC(=O)O)C(=O)N[C@@H](CC(=O)O)C(N)=O)[C@@H](C)O` [RTEFIAWGPTGDED] (Ac-RTEFIAWGPTGDED-NH2): the inhibition constant (Ki) under setting [5] was 87 ± 3 nM.
Regarding `CC[C@H](C)[C@H](NC(=O)[C@H](Cc1ccccc1)NC(=O)[C@H](CCC(=O)O)NC(=O)[C@@H](NC(C)=O)[C@@H](C)O)C(=O)N[C@@H](C)C(=O)N[C@@H](Cc1c[nH]c2ccccc12)C(=O)NCC(=O)N1CCC[C@H]1C(=O)N[C@H](C(=O)NCC(=O)N[C@@H](CC(=O)O)C(=O)N[C@@H](CCC(=O)O)C(=O)N[C@@H](CC(=O)O)C(N)=O)[C@@H](C)O` [TEFIAWGPTGDED] (Ac-TEFIAWGPTGDED-NH2), the Ki (Table 5, elongation and truncation scan of AJAP-1 binding epitope, read-out: Ki (nM) mean ± SEM) is 102 ± 4 nM.
For the compound `CC[C@H](C)[C@H](NC(=O)[C@H](Cc1c[nH]c2ccccc12)NC(=O)[C@H](CC(=O)O)NC(=O)[C@H](CC(=O)O)NC(=O)[C@H](CC(=O)O)NC(=O)[C@H](CCC(=O)O)NC(=O)[C@H](CCCNC(=N)N)NC(=O)[C@H](CCCNC(=N)N)NC(=O)[C@H](CCCNC(=N)N)NC(=O)[C@H](CCC(N)=O)NC(=O)[C@H](CCCNC(=N)N)NC(=O)[C@H](CCCNC(=N)N)NC(=O)[C@H](CCCCN)NC(=O)[C@H](CCCCN)NC(=O)[C@H](CCCNC(=N)N)NC(=O)CNC(=O)[C@H](Cc1ccc(O)cc1)NC(C)=O)C(=O)N[C@@H](CC(=O)O)C(=O)N[C@@H](Cc1c[nH]c2ccccc12)C(=O)N[C@@H](Cc1ccc(O)cc1)C(=O)N[C@@H](CC(=O)O)C(=O)N[C@@H](CO)C(=O)N[C@@H](CC(=O)O)C(=O)N[C@@H](CC(=O)O)C(=O)N[C@@H](CC(=O)O)C(N)=O` [Tat-16] (Ac-YGRKKRRQRRREDDDWIDWYDSDDD-NH2), the Ki was 83 ± 1 nM under setting [1] and 83.4 ± 1 nM under setting [2].
For `CC[C@H](C)[C@H](NC(=O)[C@H](Cc1c[nH]c2ccccc12)NC(=O)[C@H](CC(=O)O)NC(=O)[C@H](CC(=O)O)NC(=O)[C@H](CC(=O)O)NC(=O)[C@H](CCC(=O)O)NC(=O)[C@H](CCCNC(=N)N)NC(=O)[C@H](CCCNC(=N)N)NC(=O)[C@H](CCCNC(=N)N)NC(=O)[C@H](CCC(N)=O)NC(=O)[C@H](CCCNC(=N)N)NC(=O)[C@H](CCCNC(=N)N)NC(=O)[C@H](CCCCN)NC(=O)[C@H](CCCCN)NC(=O)[C@H](CCCNC(=N)N)NC(=O)CNC(=O)[C@H](Cc1ccc(O)cc1)NC(C)=O)C(=O)N[C@@H](CC(=O)O)C(=O)N[C@@H](Cc1c[nH]c2ccccc12)C(=O)NCC(=O)N1CCC[C@H]1C(=O)N[C@H](C(=O)N[C@@H](CO)C(=O)N[C@@H](CC(=O)O)C(=O)N[C@@H](CC(=O)O)C(=O)N[C@@H](CC(=O)O)C(N)=O)[C@@H](C)O` [Tat-17] (Ac-YGRKKRRQRRREDDDWIDWGPTSDDD-NH2), in that order: 50 ± 2 nM and 49.9 ± 2 nM.
In the case of `CC[C@H](C)[C@H](NC(=O)[C@H](Cc1ccccc1)NC(=O)[C@H](CCC(=O)O)NC(=O)[C@@H](NC(=O)[C@@H](NC(C)=O)C(C)C)[C@@H](C)O)C(=O)N[C@@H](C)C(=O)N[C@@H](Cc1c[nH]c2ccccc12)C(=O)NCC(=O)N1CCC[C@H]1C(=O)N[C@H](C(=O)NCC(=O)N[C@@H](CC(=O)O)C(=O)N[C@@H](CCC(=O)O)C(=O)N[C@@H](CC(=O)O)C(N)=O)[C@@H](C)O` [VTEFIAWGPTGDED], the Ki under setting [5] is 67 ± 1 nM.
For the compound `CC[C@H](C)[C@H](NC(=O)[C@H](C)NC(=O)[C@H](Cc1c[nH]c2ccccc12)NC(=O)[C@@H](NC(C)=O)C(C)C)C(=O)N[C@H](C(=O)N[C@@H](Cc1c[nH]c2ccccc12)C(=O)NCC(=O)N1CCC[C@H]1C(=O)N[C@H](C(=O)N[C@H](C(=O)N[C@@H](CO)C(=O)N[C@@H](CCCNC(=N)N)C(=O)N[C@@H](CCC(=O)O)C(=O)N[C@@H](CC(=O)O)C(N)=O)C(C)C)[C@@H](C)O)C(C)C` [VWAIVWGPTVSRED] (Ac-VWAIVWGPTVSRED-NH2), the Ki (Table 12, deep mutational scanning validation variants of PIANPWT, read-out: Ki (nM) mean ± SEM) was 412 ± 20 nM.
On to `CC[C@H](C)[C@H](NC(=O)[C@H](CC(=O)O)NC(=O)[C@H](CC(=O)O)NC(=O)[C@H](Cc1ccc(O)cc1)NC(=O)[C@H](CC(=O)O)NC(=O)[C@H](CC(=O)O)NC(=O)[C@H](CO)NC(=O)[C@H](CC(=O)O)NC(=O)[C@H](CCC(=O)O)NC(=O)[C@H](Cc1ccc2ccccc2c1)NC(=O)[C@H](CCCNC(=N)N)NC(=O)[C@H](CCCNC(=N)N)NC(=O)[C@H](CCCNC(=N)N)NC(=O)[C@H](CCCNC(=N)N)NC(C)=O)C(=O)N[C@@H](CC(=O)O)C(=O)N[C@@H](CC(=O)O)C(=O)N[C@@H](CC(=O)O)C(=O)N[C@@H](Cc1c[nH]c2ccccc12)C(N)=O` [reference compound] (Ac-RRRR[2Nal]EDSDDYDDIDDDW-NH2), for which the Ki under setting [2] was 143000 ± 2500 nM.
Regarding “EDDS(Aphe)VWWGGADTD (Ac-EDDS[Phe(4-NH2)]VWWGGADTD-NH2)”, the Ki under setting [6] is 184 ± 3 nM.
For “EDDS(Buphe)VWWGGADTD (Ac-EDDS[Phe(4-tBu)]VWWGGADTD-NH2)”, the Ki under setting [6] was 269 ± 3 nM.
On the same count and under the same terms, the figure for “EDDS(Fphe)VWWGGADTD (Ac-EDDS[Phe(4-F)]VWWGGADTD-NH2)” is 117 ± 2 nM; for “EDDSDVWW(Aphe)GADTD (Ac-EDDSDVWW[Phe(4-NH2)]GADTD-NH2; SMILES CC(=O)N[C@@H](CCC(=O)O)C(=O)N[C@@H](CC(=O)O)C(=O)N[C@@H](CC(=O)O)C(=O)N[C@@H](CO)C(=O)N[C@@H](CC(=O)O)C(=O)N[C@H](C(=O)N[C@@H](Cc1c[nH]c2ccccc12)C(=O)N[C@@H](Cc1c[nH]c2ccccc12)C(=O)N[C@@H](Cc1ccc(N)cc1)C(=O)NCC(=O)N[C@@H](C)C(=O)N[C@@H](CC(=O)O)C(=O)N[C@H](C(=O)N[C@@H](CC(=O)O)C(N)=O)[C@@H](C)O)C(C)C)” it is 102 ± 1 nM.
Take “ETEFlaWGPTGDED (Ac-ETEFI[dA]WGPTGDED-NH2)”: the Ki (Table 8, in μM, read-out: Ki (nM) mean ± SEM) is above 6250 nM.
